According to patent publication EP4707392A1, “DOUBLE-STRANDED OLIGONUCLEOTIDE, CONJUGATE THEREOF, AND USE THEREOF” (priority 2023, dated 2024):

Key:
[1] = system: coagulation factor XI (Factor XI, FXI) mRNA; assay: In vitro inhibitory activity of siRNA conjugates modified with TOM against FXI mRNA, free uptake by mouse primary hepatocytes (Example 6); assay type: cell-based
Experimental: The inhibitory activities of the siRNA conjugates modified with TOM at different sites of an antisense strand against a target gene FXI in mouse primary hepatocytes were evaluated by the same experimental method as that in Example 4. Differences lie in that the siRNA conjugates modified with TOM at different sites of an antisense strand were used in the present example to replace the siRNA conjugates used in Example 4, and that target gene FXI detection primers listed in Table 13 were used in the present example to replace target gene detection primers used in Example 4. Relative quantitative calculation was performed for the target gene mRNA in various test groups by the preceding ΔΔCt method.

CC3 mRNA = assay: Inhibitory activity of siRNAs modified with MOE at different sites against CC3 mRNA in HepG2 cells (Example 8); assay type: cell-based, human; conditions: MOE at a single site
Experimental: In vitro activities of siRNA compounds, such as RX502165 modified with MOE at different sites of a sense strand and RX502172 modified with MOE at different sites of an antisense strand, and a reference compound RX502001 without MOE modification on HepG2 cells were evaluated using the same experimental method as that in Example 2. A difference lies in that the siRNA compounds modified with MOE at different sites of the sense and antisense strands were used in the present example to replace the siRNA compounds used in Example 2. Relative quantitative calculation was performed for the target gene mRNA in various test groups by the preceding ΔΔCt method.

In the case of “RZ594004: siRNA conjugate, SEQ ID NOs 341/342 (chain 1 GUACGUGGACUGGAUUCUG; chain 2 CAGAATCCAGTCCACGTACTT; siRNA conjugate, conjugate and pattern not given here)”, the “in vitro activity compared with the reference sequence (RZ594001) without TOM modification” value [1] is reported as “conducive to enhancing in vitro activity”.

In the case of “RZ594005: siRNA conjugate, SEQ ID NOs 343/344 (chain 1 GUACGUGGACUGGAUUCUG; chain 2 CAGAATCCAGTCCACGTACTT; siRNA conjugate, conjugate and pattern not given here)”, the “in vitro activity compared with the reference sequence (RZ594001) without TOM modification” value [1] is reported as “conducive to enhancing in vitro activity”.

For “RZ594006: siRNA conjugate, SEQ ID NOs 345/346 (chain 1 GUACGUGGACUGGAUUCUG; chain 2 CAGAATCCAGTCCACGTACTT; siRNA conjugate, conjugate and pattern not given here)”, the “in vitro activity compared with the reference sequence (RZ594001) without TOM modification” value [1] was “conducive to enhancing in vitro activity”.

With “RZ594008: siRNA conjugate, SEQ ID NOs 293/294 (chain 1 GUACGUGGACUGGAUUCUG; chain 2 CAGAATCCAGTCCACGTACTT; siRNA conjugate, conjugate and pattern not given here)” the “in vitro activity compared with the reference sequence (RZ594001) without TOM modification” value [1] was “significantly weakened the in vitro activity”.

In the case of “RZ594009: siRNA conjugate, SEQ ID NOs 295/296 (chain 1 GUACGUGGACUGGAUUCUG; chain 2 CAGAATCCAGTCCACGTACTT; siRNA conjugate, conjugate and pattern not given here)”, the “in vitro activity compared with the reference sequence (RZ594001) without TOM modification” value [1] is reported as “significantly weakened the in vitro activity”.

For “RZ594011: siRNA conjugate, SEQ ID NOs 299/300 (chain 1 GUACGUGGACUGGAUUCUG; chain 2 CAGAATCCAGTCCACGTACTT; siRNA conjugate, conjugate and pattern not given here)”, the “in vitro activity compared with the reference sequence (RX502001) without MOE modification” value (CC3 mRNA) was “conducive to elevating the in vitro activity” and the “in vitro activity compared with the reference sequence (RZ594001) without TOM modification” value [1] was “conducive to enhancing in vitro activity”.

In the case of “RZ594012: siRNA conjugate, SEQ ID NOs 301/302 (chain 1 GUACGUGGACUGGAUUCUG; chain 2 CAGAATCCAGTCCACGTACTT; siRNA conjugate, conjugate and pattern not given here)”, the “in vitro activity compared with the reference sequence (RZ594001) without TOM modification” value [1] is reported as “conducive to enhancing in vitro activity”.

In the case of “RZ594013: siRNA conjugate, SEQ ID NOs 303/304 (chain 1 GUACGUGGACUGGAUUCUG; chain 2 CAGAATCCAGTCCACGTACTT; siRNA conjugate, conjugate and pattern not given here)”, the “in vitro activity compared with the reference sequence (RZ594001) without TOM modification” value [1] is reported as “significantly weakened the in vitro activity”.

In the case of “RZ594014: siRNA conjugate, SEQ ID NOs 305/306 (chain 1 GUACGUGGACUGGAUUCUG; chain 2 CAGAATCCAGTCCACGTACTT; siRNA conjugate, conjugate and pattern not given here)”, the “in vitro activity compared with the reference sequence (RZ594001) without TOM modification” value [1] is reported as “significantly weakened the in vitro activity”.

“RZ594015: siRNA conjugate, SEQ ID NOs 307/308 (chain 1 GUACGUGGACUGGAUUCUG; chain 2 CAGAATCCAGTCCACGTACTT; siRNA conjugate, conjugate and pattern not given here)” was tested, and the “in vitro activity compared with the reference sequence (RZ594001) without TOM modification” value [1] was “significantly weakened the in vitro activity”.

In the case of “RZ594016: siRNA conjugate, SEQ ID NOs 309/310 (chain 1 GUACGUGGACUGGAUUCUG; chain 2 CAGAATCCAGTCCACGTACTT; siRNA conjugate, conjugate and pattern not given here)”, the “in vitro activity compared with the reference sequence (RZ594001) without TOM modification” value [1] is reported as “significantly weakened the in vitro activity”.

With “RZ594018: siRNA conjugate, SEQ ID NOs 313/314 (chain 1 GUACGUGGACUGGAUUCUG; chain 2 CAGAATCCAGTCCACGTACTT; siRNA conjugate, conjugate and pattern not given here)” the “in vitro activity compared with the reference sequence (RZ594001) without TOM modification” value [1] was “conducive to enhancing in vitro activity”.

With “RZ594019: siRNA conjugate, SEQ ID NOs 315/316 (chain 1 GUACGUGGACUGGAUUCUG; chain 2 CAGAATCCAGTCCACGTACTT; siRNA conjugate, conjugate and pattern not given here)” the “in vitro activity compared with the reference sequence (RZ594001) without TOM modification” value [1] was “conducive to enhancing in vitro activity”.

“RZ594024: siRNA conjugate, SEQ ID NOs 325/326 (chain 1 GUACGUGGACUGGAUUCUG; chain 2 CAGAATCCAGTCCACGTACTT; siRNA conjugate, conjugate and pattern not given here)” was tested, and the “in vitro activity compared with the reference sequence (RZ594001) without TOM modification” value [1] was “conducive to enhancing in vitro activity”.

“RZ594025: siRNA conjugate, SEQ ID NOs 327/328 (chain 1 GUACGUGGACUGGAUUCUG; chain 2 CAGAATCCAGTCCACGTACTT; siRNA conjugate, conjugate and pattern not given here)” was tested, and the “in vitro activity compared with the reference sequence (RZ594001) without TOM modification” value [1] was “conducive to enhancing in vitro activity”.

In the case of “RZ594030: siRNA conjugate, SEQ ID NOs 347/348 (chain 1 GUACGUGGACUGGAUUCUG; chain 2 CAGAATCCAGTCCACGTACTT; siRNA conjugate, conjugate and pattern not given here)”, the “in vitro activity compared with the reference sequence (RZ594001) without TOM modification” value [1] is reported as “conducive to enhancing in vitro activity”.

In the case of “RZ594035: siRNA conjugate, SEQ ID NOs 357/358 (chain 1 GUACGUGGACUGGAUUCUG; chain 2 CAGAATCCAGTCCACGTACTT; siRNA conjugate, conjugate and pattern not given here)”, the “in vitro activity compared with the reference sequence (RZ594001) without TOM modification” value [1] is reported as “conducive to enhancing in vitro activity”.

In the case of “RZ594040: siRNA conjugate, SEQ ID NOs 367/368 (chain 1 GUACGUGGACUGGAUUCUG; chain 2 CAGAATCCAGTCCACGTACTT; siRNA conjugate, conjugate and pattern not given here)”, the “in vitro activity compared with the reference sequence (RZ594001) without TOM modification” value [1] is reported as “conducive to enhancing in vitro activity”.

For “RZ594041: siRNA conjugate, SEQ ID NOs 369/370 (chain 1 GUACGUGGACUGGAUUCUG; chain 2 CAGAATCCAGTCCACGTACTT; siRNA conjugate, conjugate and pattern not given here)”, the “in vitro activity compared with the reference sequence (RZ594001) without TOM modification” value [1] was “conducive to enhancing in vitro activity”.
